From US20120003270A1, “6-SUBSTITUTED ISOFLAVONOID COMPOUNDS AND USES THEREOF” (priority 2008, published 2012)

Legend:
[1] = tested on: NFκB; test: NFκB promoter activity in transfected THP-1 cells (beta-lactamase reporter); assay type: cell-based, human; conditions: THP-1 cells, TNFα-stimulated
Experimental: The assay utilizes a genetically modified THP-1 cell line and GeneBLAzer® beta-lactamase technology (Invitrogen Corp). The human THP-1 monocyte/macrophages contain a stably-transfected beta-lactamase reporter gene under control of the NFkB response element. They respond to stimulation with TNFα, which leads to activation of the NFkB signaling pathway. Co-incubation of cells with TNFα and test material allows quantitative determination of the ability of test material to inhibit TNFα-stimulated beta-lactamase production. An inflammatory index was calculated as the ratio of beta-lactamase product to beta-lactamase substrate.
In brief, genetically modified THP-1 cells were seeded into wells of a 96-well plate (50×10^3 cells/well) in the presence of RPMI 1640 medium (70 μl). TNFα was added to each well (10 μl) to give a final concentration of 7.5 ng/ml. Dialyzed bovine serum was added (10 μl). Test compounds were dissolved in DMSO (10 μL) (5 wells). Each plate contained a no-cell control (4 wells), a no-serum control (4 wells) and two serum controls. Plates were incubated for 5 h at 37° C. to allow for NFkB-stimulated beta-lactamase production. LiveBLAzer™ FRET B/G Substrate (CCF4-AM) substrate was then added to the assay. CCF4-AM is a Förster resonance energy transfer (FRET) based substrate for beta-lactamase developed by Invitrogen Corp. Once CCFA-AM enters a cell, it is converted to negatively charged CCF4 by endogenous esterases. Excitation of this substrate at 409 nm leads to efficient FRET between the coumarin and fluorescein moieties, resulting in a green fluorescence detectable at 530 nm. The presence of beta-lactamase leads to cleavage of CCF4 and results in a loss of FRET, resulting in a robust blue fluorescent signal detectable at 460 nm. Thus, activity of beta-lactamase (a marker of NFkB-promoter activity) is measured as a product to substrate ratio (blue/green fluorescence ratio: 460 nm/530 nm).

[2] = tested on: THP-1 cells; test: Cytotoxicity in the THP-1 NFκB assay; assay type: cell-based, human; conditions: at active concentrations
[3] = tested on: iNOS; test: NO synthesis in LPS-stimulated RAW 264.7 (Griess); assay type: cell-based, mouse; conditions: LPS 50 ng/ml, 16 hrs
Experimental: The mouse macrophage cell line RAW 264.7 was cultured in DMEM supplemented with foetal calf serum (FCS), 2 mM glutamine and 50 U/ml penicillin/streptomycin. Cells were treated with either the compounds of the formula (I) (in 0.025% DMSO) or vehicle alone, and added one hour before 50 ng/ml LPS, which induces iNOS and the production of NO. After incubation for 16 hrs, culture media was collected. Nitrite concentration is a quantitative indicator of NO production and was determined by the Griess Reaction. Briefly, 100 μL of Griess reagent was added to 50 μL of each supernatant in duplicate. The absorbance at 550 nm was measured (Molecular Devices, SpectraMax 250 microplate spectrophotometer, CA, USA), and nitrite concentrations were determined against a standard curve of sodium nitrite.

[4] = tested on: RAW 264.7; test: Toxicity in RAW 264.7; assay type: cell-based, mouse
[5] = Free radical scavenging (DPPH); assay type: biochemical; conditions: DPPH 0.1 mM, 20 minutes, 517 nm; read-out: Free radical scavenging ability EC50
Experimental: The antioxidant (free radical trapping) activity of test compounds was assessed using the stable free radical compound 2,2-diphenyl-1-picrylhydrazyl (DPPH). A stock solution of DPPH was prepared at a concentration of 0.1 mM in ethanol and mixed for 10 minutes prior to use. Compound (1) was reacted with DPPH for 20 minutes, after which time the absorbance at 517 nm was determined. The change in absorbance at 517 nm was compared to a reagent blank (DPPH with ethanol alone). The IC50 value was estimated as the concentration of the test compound that caused a 0.6 change in absorbance (with 1.2 absorbance units representing total scavenging of the DPPH radical).

[6] = tested on: PGE2; test: PGE2 synthesis in RAW 264.7 (ELISA); assay type: cell-based, mouse; conditions: LPS 50 ng/ml, 16 hrs
Experimental: (§1) The mouse macrophage cell line RAW 264.7 was cultured in DMEM supplemented with foetal calf serum (FCS), 2 mM glutamine and 50 U/ml penicillin/streptomycin. Cells were treated with either test compounds (in 0.025% DMSO) or vehicle alone, and added one hour before 50 ng/ml LPS. After incubation for 16 hrs, culture media was collected for PGE2 or TXB2 measurement by ELISA (Cayman Chemical), and TNFα measurement using an ELISA (Becton Dickinson).

[7] = tested on: TXA2; test: TXA2 synthesis in RAW 264.7 (ELISA); assay type: cell-based, mouse; conditions: LPS 50 ng/ml, 16 hrs
Experimental: as §1

[8] = tested on: TNFα; test: TNFα synthesis in RAW 264.7 (ELISA); assay type: cell-based, mouse; conditions: LPS 50 ng/ml, 16 hrs
Experimental: as §1

[9] = tested on: neonatal fibroblast foreskin (NFF); test: Toxicity in normal cells (MTT), NFF; assay type: cell-based; conditions: Homo sapiens, 120 h, 5 days, top concentration 150 μM, read-out: Normal cell viability IC50
Experimental: (§2) Human neonatal fibroblast foreskin (NFF—a gift from Dr. Peter Parsons, Queensland Institute of Medical Research) or rabbit kidney (RK-13—a gift from Prof. Miller Whalley, Macquarie University) cells were seeded into 96 well plates and cultured in RPMI supplemented with 10% FCS (CSL, Australia), penicillin (100 U/ml), streptomycin ([…]), L-glutamine (2 mM) and sodium bicarbonate (1.2 g/L) at 37° C. and 5% CO2 for 24 hours until cells had attached and entered log phase of growth. Test compounds were added in serial two-fold dilutions from 150 μM in triplicate and incubated for a further 5 days. MTT was then added to each well, incubated for 3 hours at 37° C., after which the medium was tipped off. Following the addition of DMSO, the absorbance for each well was read on a plate reader. The assays were repeated at least twice.

[10] = tested on: rabbit kidney (RK-13); test: Toxicity in normal cells (MTT), RK-13; assay type: cell-based; conditions: Oryctolagus cuniculus, RK-13, 120 h, 5 days, top concentration 150 μM, read-out: Normal cell viability IC50
Experimental: as §2

SMILES: COC(=O)CNCc1cc2c(cc1O)OCC(c1ccc(O)cc1)=C2 [Compound (2)]
- Effect on promoter activity of NFκB (in words) [1]: active at the highest concentration only
- Cytotoxicity [2]: absence of cytotoxicity
- NO ([3]; 1 μM): 16.41 ± 0.0 µM
- NO ([3]; 10 μM): 10.22 ± 0.15 µM
- Effect on the viability of RAW 264.7 cells [4]: little effect on the viability
- EC50 [5]: > 100 µM
- PGE2 ([6]; 1 μM): 3180.37 ± 127.29 pg/mL
- PGE2 ([6]; 10 μM): 2070.69 ± 168.81 pg/mL
- TXB2 ([7]; 1 μM): 16.71 ± 3.43 pg/mL
- TXB2 ([7]; 10 μM): 17.58 ± 7.99 pg/mL
- TNFα ([8]; 1 μM): 35085.88 ± 2273.16 pg/mL
- TNFα ([8]; 10 μM): 46065.55 ± 1234.32 pg/mL
- IC50 [9]: 145 ± 8.1 µM
- IC50 [10]: > 150 µM
